Results: patent US12668646B2, “Cross-linking compounds and methods of use thereof” (North Carolina State University, priority 2019, dated 2026)
“And” between values parts separate entries of the source, which are not always exact repeats. Equal values may be shown once.

What was measured:
tritosomes = assay: Indigoid dye formation with tritosomes; assay type: biochemical; details: for Indigoid dye formation with tritosomes: result in words
Description: The results from the glucosidase survey prompted several further experiments. First, a parallel set of studies was carried out with inclusion of several oxidants commonly employed in histochemical studies, given that the indigoid dye forming process requires the presence of an oxidant. […] The activity of the β-glucosidase was affected only slightly in the presence of a non-ionic detergent. To verify that the results observed in Table 1 were reliable, a 5-mg scale reaction of 33 was carried out to isolate indigo 43, which was obtained in 66% yield (Scheme 7). The 66% isolated yield corresponded well with the enzymatic yield of […] (Table 1, entry 15).
General methods. β-Glucosidase from almonds (lyophilized powder, ≥2 units/mg solid) and peroxidase from horseradish were purchased from Sigma-Aldrich. β-Glucosidase from Agrobacterium sp. (recombinant, suspension in 3.2 M (NH4)2SO4) was purchased from Megazyme; the concentration in solution was determined by absorption spectroscopy with E^0.1%=2.20 cm^−1 at 280 nm.^37 Tritosomes were purchased from XenoTech. Rat liver homogenate was purchased from MP Biomedicals.

[1] = tested on: β-glucosidase from almonds; assay: Indigogenic reaction with β-glucosidase from almonds; assay type: biochemical
rat liver homogenate = assay: Indigoid-dye formation in rat liver homogenate; assay type: biochemical; details: as E7 but ϵ = 2.6 × 10^4 M^−1 cm^−1 measured for 43
Description: Finally, indigoid-dye formation was carried out in rat liver homogenate (Table 1, rightmost column).
Reactions in rat liver homogenate. An indoxyl compound in DMF (5 μL, 20 mM) was mixed with rat liver homogenate (95 μL). The reaction mixture was incubated at 37° C. for 24 h. After allowing to cool to room temperature, the reaction mixture was diluted with DMF (900 μL). The mixture was heated at 70° C. for 2 min and then centrifuged for 2 min. The supernatant was separated from any precipitate. This extraction procedure was repeated two or three times with DMF (100-500 μL). The combined supernatant (1500-1800 μL) was analyzed by absorption spectroscopy.

[2] = target: T1, β-glucosidase from Agrobacterium (Agrobacterium sp., UniProt P12614); assay: Indigogenic reaction with β-glucosidase from Agrobacterium; assay type: biochemical; details: for Yield of indigoid dye: 33 100 μM, enzyme 200 nM; for Yield (%) β-glucosidase from Agrobacterium: as E4 but ϵ = 2.6 × 10^4 M^−1 cm^−1 measured for 43
T1 construct: purchased Megazyme
T1 sequence (P12614 1-459): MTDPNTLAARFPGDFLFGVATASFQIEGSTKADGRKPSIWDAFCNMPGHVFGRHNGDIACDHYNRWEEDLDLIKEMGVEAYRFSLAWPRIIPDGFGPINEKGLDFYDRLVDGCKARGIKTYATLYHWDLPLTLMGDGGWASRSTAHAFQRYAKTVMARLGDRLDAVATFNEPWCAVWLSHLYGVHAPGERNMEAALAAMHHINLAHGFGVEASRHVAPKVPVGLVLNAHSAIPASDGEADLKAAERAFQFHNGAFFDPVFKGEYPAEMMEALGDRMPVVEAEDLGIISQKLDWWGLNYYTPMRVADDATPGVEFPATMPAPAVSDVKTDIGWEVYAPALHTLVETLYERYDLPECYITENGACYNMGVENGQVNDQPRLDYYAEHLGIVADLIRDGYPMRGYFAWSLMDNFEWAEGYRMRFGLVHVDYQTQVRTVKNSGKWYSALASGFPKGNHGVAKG
Description: Next, the β-glucosidase from Agrobacterium sp. was investigated as the trigger enzyme for indigoid dye formation. […] The reaction was carried out using the enzyme (200 nM) and indoxyl-glucoside 33 (100 μM) in phosphate buffer (pH 4-9, containing 2% DMF) at 37° C. […] Note that with 200 nM enzyme and 100 μM substrate, complete reaction requires 500 turnovers of each enzyme.
Reactions with β-glucosidase from Agrobacterium. An indoxyl compound in DMF (2 μL, 5 mM) and β-glucosidase from Agrobacterium in 10 mM phosphate buffer [2 μL, 10 μM, pH 7.0, containing 50 mM NaCl and 0.6 M (NH4)2SO4] were mixed with 50 mM phosphate buffer (96 μL, pH 7.0). The reaction mixture was incubated at 37° C. for 2 h and then centrifuged for 3 min. Any precipitate was separated from the supernatant and dissolved in DMF (200 μL). The resulting solution was analyzed by absorption spectroscopy. The experiment was repeated three times.

[3] = target: T2, β-glucosidase from Agrobacterium plus rat liver homogenate (Agrobacterium sp., UniProt P12614); assay: Reaction with β-glucosidase from Agrobacterium in rat liver homogenate; assay type: biochemical; details: 33 100 μM, enzyme 200 nM, 2% DMF, 37° C., 4 h; ϵ = 2.6 × 10^4 M^−1 cm^−1
T2 construct: purchased Megazyme
T2 sequence (P12614 1-459): T1 sequence (P12614 1-459)
Description: Finally, indigoid-dye formation was carried out in rat liver homogenate (Table 1, rightmost column). Good yields were obtained in the case of 42 (65%, entry 4) and 27 (50%, entry 13). […] However, when β-glucosidase from Agrobacterium (200 nM) was present in rat liver homogenate, the indigoid dye was obtained in 81% yield (entry 15).
Reaction of 33 with β-glucosidase from Agrobacterium in rat liver homogenate. A DMF solution of 33 (2 μL, 5 mM) and β-glucosidase from Agrobacterium in 10 mM phosphate buffer [2 μL, 10 μM, pH 7.0, containing 50 mM NaCl and 0.6 M (NH4)2SO4] were mixed with rat liver homogenate (96 μL). The reaction mixture was incubated at 37° C. for 4 h and then centrifuged for 3 min. Any precipitate was separated from the supernatant and then suspended in DMF (200 μL). The suspension was centrifuged for 3 min. The supernatant was analyzed by absorption spectroscopy.

[4] = Solubility in aqueous buffer; assay type: physicochemical; details: 100 mM phosphate buffer (pH 7.4, containing 100 mM NaCl), room temperature
Description: Water solubility of the indoxyl glucoside is important for biological applications. […] Therefore, this compound is not suitable for bioconjugation. The synthesis of 34 relies on successive substitution of the dichloroanilinotriazine unit (derived from N,N-bis(2-methoxyethyl)aniline^31 and cyanuric chloride) with indoxyl-glucoside-PEG-OH and BCN-PEG-NH2 building blocks.
To improve the water solubility of the indoxyl species, a sulfobetaine unit^32,33 was incorporated as a water-solubilizing group. Sulfobetaines are stable zwitterions over a wide range of pH. Synthesis of an indoxyl bearing a sulfobetaine unit is illustrated in Scheme 6. Boc-piperazine (35) was treated with 1,3-propane sultone to afford 36 in 63% yield. Quaternization of the tertiary nitrogen atom in 36 with 3-bromopropanol gave Boc-protected sulfobetaine 37 in 69% yield. The Boc group was cleaved with trifluoroacetic acid (TFA) to afford piperazine-TFA salt 38 in 97% yield. The N-acetyl group of 32 was selectively deprotected with NaHCO3/MeOH in 84% yield. The product 39, piperazine-TFA salt 38, and BCN-amine 14 were assembled at a triazine ring via one-flask, successive substitution of cyanuric chloride to afford 40 in 51% yield. Cleavage of the acetyl groups of sulfobetaine 40 provided 41 in 98% yield.

β-glucosidase = assay: Treatment of F-9 with β-glucosidase; assay type: biochemical; details: result in words
Description: Triazine-based A2BC architectures. Cyanuric chloride (F-8) was treated with 2 equiv of F-7 followed by tyramine to afford F-9 in 56% yield (Scheme 17). […] Treatment of N-(6-hydroxyhexyl)maleimide (F-10) (K. A. Keller, et al., Tetrahedron Lett., 2005, 46, 1181-1184. “A Thermally-Cleavable Linker for Solid-Phase Synthesis”) with cyanuric chloride (F-8) followed by F-9 in the presence of bases gave F-11 in 77% yield. […] While F-9 and F-11 were attractive from a synthetic standpoint given the ability to derivatize the 5-hydroxy group of the indoxyl unit without protection of the four hydroxy groups of the glucosyl unit, the reaction with a β-glucosidase was sine qua non in the molecular design. Accordingly, we moved to the design of a more suitable architecture.

[5] = indoxyl 1 mM, enzyme 1 unit/mL, 0.01M acetate buffer pH 5, 5% DMF, 37° C., 16-19 h, ϵ = 1.27 × 10^4 M^−1 cm^−1 measured for 4

5-[(Benzylcarbamoyl)oxy)]-1H-indole-3-yl β-D-glucopyranoside [Compound 16]
Indigoid dye formation with tritosomes (tritosomes): low yield
Yield (%) β-glucosidase from almonds [1, 5]: 24%

COc1nc(Oc2ccc3[nH]cc(O[C@@H]4O[C@H](CO)[C@@H](O)[C@H](O)[C@H]4O)c3c2)nc(N2CCOCC2)n1 [Compound 19, 5-[(4-Methoxy-6-morpholino-1,3,5-triazin-2-yl)oxy]-1H-indole-3-yl β-D-glucopyranoside]
Indigoid dye formation with tritosomes (tritosomes): low yield
Yield (%) β-glucosidase from almonds [1, 5]: <1%

OCCOCCOCCOc1c(Br)cc2[nH]cc(O[C@@H]3O[C@H](CO)[C@@H](O)[C@H](O)[C@H]3O)c2c1Br [Compound 33, 4,6-Dibromo-5-[1-hydroxy-3,6,9-trioxanon-9-yl]-1H-indol-3-yl β-D-glucopyranoside]
Yield (%) rat liver homogenate (rat liver homogenate): < 5%
Yield of indigoid dye ([2]; pH 6-9, 3 h, in words): High to quantitative yields
Yield of indigoid dye ([2]; phosphate buffer pH 4, 3 h): 6%
Yield of indigoid dye ([2]; phosphate buffer pH 5, 3 h): 38%
Yield (%) β-glucosidase from Agrobacterium [2]: 99%
Isolated yield of indigo 43 ([1]; 5-mg scale reaction of 33, acetate buffer pH 5.0, 37° C., 22 h): 66%
Yield (%) β-glucosidase from almonds ([1]; as E1 but ϵ = 2.6 × 10^4 M^−1 cm^−1 measured for 43): 52% and 52^g %
Yield (%) β-glucosidase from Agrobacterium plus rat liver homogenate [3]: 81%

O=C(NCCOCCOCCNc1nc(OCCOCCOCCOc2c(Br)cc3[nH]cc(O[C@@H]4O[C@H](CO)[C@@H](O)[C@H](O)[C@H]4O)c3c2Br)nc(N2CC[N+](CCCO)(CCCS(=O)(=O)[O-])CC2)n1)OC[C@@H]1[C@@H]2CCC#CCC[C@@H]21 [Compound 41]
solubility [4]: > 400 µM
Yield (%) β-glucosidase from Agrobacterium [2]: 106% and 106 ± 4^g %

OC[C@H]1O[C@@H](Oc2c[nH]c3ccc(Oc4nc(NCCc5ccc(O)cc5)nc(Oc5ccc6[nH]cc(O[C@@H]7O[C@H](CO)[C@@H](O)[C@H](O)[C@H]7O)c6c5)n4)cc23)[C@H](O)[C@@H](O)[C@@H]1O [Compound F-9, 2,4-Bis[3-(β-D-glucopyranosyloxy)-1H-indol-5-yloxy]-6-[2-(4-hydroxyphenyl)ethylamino]-1,3,5-triazine]
Indigoid dye formation upon treatment with β-glucosidase (β-glucosidase): did not form the corresponding indigoid dye
Yield of indigoid dye with tritosomes (tritosomes): ca. 4%
